Experimental data published in PMC9226319, “Peripherally restricted transthyretin-based delivery system for probes and therapeutics avoiding opioid-related side effects” (Nature Communications, 2022).
Where “and” joins values, the source holds several entries; their conditions need not be identical. Identical values can stand only once. Like-named read-outs stand apart in the source and are kept apart here.

Experiments:
[1] = rat; for plasma concentration: IV 4.84 µmol/kg, individual animals
in vivo [2] = settings: male, Sprague Dawley, rat, iv
TTR in human serum = TTR in human serum (Homo sapiens, UniProt P02766); experiment: TTR serum fluorescent probe exclusion (FPE) selectivity assay; assay type: binding; settings: ligand 10 µM; for %FPE probe fluorescence: human serum, replicates
male Sprague-Dawley rats [3] = experiment: Gastrointestinal (GI) transit (charcoal meal) assays; assay type: in vivo, rat
[4] = rat; for plasma concentration: SC 16 µmol/kg, individual animals
in vivo [5] = settings: male, Sprague Dawley, rat, sc
in vitro = settings: human, % Cell viability, replicates
[6] = target: T1, kappa opioid receptor (rat) (Rattus norvegicus, UniProt P34975); settings: read-out: binding affinity to kappa-opioid receptor (Ki); cited from earlier work
T1 construct: Eurofins Cerep (France)

in vivo [7] = settings: male, Sprague Dawley, rat, iv; remark: listed apart in the source
male Sprague-Dawley rats [8] = settings: rat, in vivo, sc

T1 sequence (P34975 whole entry): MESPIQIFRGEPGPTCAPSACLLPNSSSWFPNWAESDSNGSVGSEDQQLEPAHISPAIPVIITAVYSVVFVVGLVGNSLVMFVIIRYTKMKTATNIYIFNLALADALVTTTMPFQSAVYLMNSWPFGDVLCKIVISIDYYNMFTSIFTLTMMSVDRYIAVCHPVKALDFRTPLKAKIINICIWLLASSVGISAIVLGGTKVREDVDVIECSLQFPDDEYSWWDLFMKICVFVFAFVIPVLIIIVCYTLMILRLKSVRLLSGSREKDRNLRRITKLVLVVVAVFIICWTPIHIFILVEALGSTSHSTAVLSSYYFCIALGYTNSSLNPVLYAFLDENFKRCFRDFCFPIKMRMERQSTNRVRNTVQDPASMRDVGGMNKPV

## C=CCN1CC[C@]23c4c5ccc(O)c4O[C@H]2[C@@H](OCCOCCOCCOCCOCCOCCOCCOC)CC[C@@]3(O)[C@H]1C5 [Naloxegol, reference compound]
[1]; 0.03 h
  plasma concentration: 2193.9 nM and 2301.3 nM
[1]; 0.5 h
  plasma concentration: 144.7 nM and 149.7 nM
[1]; 1 h
  plasma concentration: 58 nM and 27.2 nM and 41.1 nM
[1]; 2 h
  plasma concentration: 16.1 nM and 15.5 nM
[1]; 4 h
  plasma concentration: 4.6 nM and 6.8 nM
[1]; 6 h
  plasma concentration: 1.8 nM and 4 nM and 5.8 nM
[1]; 8 h
  plasma concentration: 2.3 nM and 1.4 nM
[1]; single IV bolus 4.84 µmol/kg
  k: 0.41 ± 0.06 h⁻¹
In vivo [2]; 4.84 umol/kg
  AUC(0-inf): 0.741 ± 0.0336 µM·h
  Vd: 2.76 ± 0.39 L/kg
  clearance: 109 mL/min/kg
  half-life: 1.72 ± 0.27 h
In vivo [2]; 4.84 µmol/kg, plasma concentration, IV 4.84 µmol/kg, 0.03 h, individual animals
  concentration at 0.03 h: 1900 nM
In vivo [2]; 4.84 µmol/kg, plasma concentration, IV 4.84 µmol/kg, 0.5 h, individual animals
  concentration at 0.5 h: 206 nM
In vivo [2]; 4.84 µmol/kg, plasma concentration, IV 4.84 µmol/kg, 2 h, individual animals
  concentration at 2 h: 17.8 nM
In vivo [2]; 4.84 µmol/kg, plasma concentration, IV 4.84 µmol/kg, 4 h, individual animals
  concentration at 4 h: 9.2 nM
In vivo [2]; 4.84 µmol/kg, plasma concentration, IV 4.84 µmol/kg, 8 h, individual animals
  concentration at 8 h: 2.5 nM
TTR in human serum; FPE probe 3.6 µM, 3 h reading relative to probe alone, text mean ± s.d., table replicates
  % TTR occupancy in human serum: 14.09% and 13.76% and 18.08% and 17.39%
TTR in human serum; time 0.000 h
  %FPE probe fluorescence: 0.000%
TTR in human serum; time 0.083 h
  %FPE probe fluorescence: -1.162% and 0.076% and 1.061% and 2.494%
TTR in human serum; time 0.250 h
  %FPE probe fluorescence: 12.642% and 13.881% and 14.653% and 16.580%
TTR in human serum; time 0.500 h
  %FPE probe fluorescence: 29.770% and 29.601% and 35.277% and 32.978%
TTR in human serum; time 1.000 h
  %FPE probe fluorescence: 51.856% and 49.775% and 51.097% and 53.857%
TTR in human serum; time 1.250 h
  %FPE probe fluorescence: 58.967% and 56.462% and 55.901% and 61.434%
TTR in human serum; time 1.500 h
  %FPE probe fluorescence: 63.979% and 62.154% and 61.352% and 66.100%
TTR in human serum; time 1.750 h
  %FPE probe fluorescence: 70.669% and 69.322% and 65.355% and 73.049%
TTR in human serum; time 2.000 h
  %FPE probe fluorescence: 72.778% and 74.065% and 70.075% and 75.601%
TTR in human serum; time 2.250 h
  %FPE probe fluorescence: 79.286% and 77.129% and 72.043% and 79.051%
TTR in human serum; time 2.500 h
  %FPE probe fluorescence: 80.847% and 80.185% and 76.560% and 80.986%
TTR in human serum; time 2.750 h
  %FPE probe fluorescence: 84.987% and 82.916% and 77.033% and 84.908%
TTR in human serum; time 3.000 h
  %FPE probe fluorescence: 85.911% and 86.240% and 81.919% and 82.607%
TTR in human serum; time 3.500 h
  %FPE probe fluorescence: 89.826% and 88.173% and 84.101% and 88.948%
TTR in human serum; time 3.750 h
  %FPE probe fluorescence: 85.342% and 89.201% and 87.815% and 89.262%
TTR in human serum; time 4.000 h
  %FPE probe fluorescence: 92.972% and 91.077% and 85.636% and 94.755%
TTR in human serum; time 4.250 h
  %FPE probe fluorescence: 92.674% and 90.338% and 87.389% and 92.827%
TTR in human serum; time 4.500 h
  %FPE probe fluorescence: 93.747% and 95.743% and 86.912% and 94.592%
TTR in human serum; time 4.750 h
  %FPE probe fluorescence: 93.049% and 92.357% and 88.468% and 95.740%
TTR in human serum; time 5.000 h
  %FPE probe fluorescence: 94.380% and 93.149% and 88.822% and 94.667%
TTR in human serum; time 5.250 h
  %FPE probe fluorescence: 94.178% and 93.087% and 90.315% and 94.928%
TTR in human serum; time 5.500 h
  %FPE probe fluorescence: 92.258% and 94.965% and 88.366% and 97.216%
TTR in human serum; time 5.750 h
  %FPE probe fluorescence: 93.772% and 93.937% and 90.079% and 96.029%
TTR in human serum; time 6.000 h
  %FPE probe fluorescence: 96.902% and 93.100% and 91.727% and 96.188%
Male Sprague-Dawley rats [3]; 3.5 μmol/kg, 2.5h, individual animals (Fig.9b)
  GI transit 2.5h as % of saline group: 41.7% and 40.4% and 35.2% and 39.7% and 39.3% and 42.0%
Male Sprague-Dawley rats [3]; rat, in vivo, sc
  GI transit as % of saline group: 39.7 ± 2.5%
[4]; 0.03 h
  plasma concentration: 247 nM and 451 nM and 135 nM
[4]; 0.25 h
  plasma concentration: 1100 nM and 1090 nM
[4]; 0.5 h
  plasma concentration: 1750 nM and 2300 nM
[4]; 0.75 h
  plasma concentration: 1870 nM and 2090 nM
[4]; 1 h
  plasma concentration: 1410 nM and 2160 nM
[4]; 2 h
  plasma concentration: 517 nM and 744 nM
[4]; 4 h
  plasma concentration: 95.6 nM and 149 nM and 239 nM
[4]; 6 h
  plasma concentration: 19 nM and 31.8 nM and 56.3 nM
[4]; 8 h
  plasma concentration: 3.9 nM and 6.7 nM and 10.6 nM
[4]; single SC dose 16 µmol/kg
  k: 0.79 ± 0.02 h⁻¹
In vivo [5]; 16 umol/kg
  AUC(0-inf): 3.68 ± 0.566 µM·h
  CL/F: 72.8 mL/min/kg
  Vd/F: 5.58 ± 0.96 L/kg
  half-life: 0.88 ± 0.02 h
In vivo [5]; 16 µmol/kg, plasma concentration, SC 16 µmol/kg, 0.25 h, individual animals
  concentration at 0.25 h: 1930 nM
In vivo [5]; 16 µmol/kg, plasma concentration, SC 16 µmol/kg, 0.5 h, individual animals
  concentration at 0.5 h: 2470 nM
In vivo [5]; 16 µmol/kg, plasma concentration, SC 16 µmol/kg, 0.75 h, individual animals
  concentration at 0.75 h: 2870 nM
In vivo [5]; 16 µmol/kg, plasma concentration, SC 16 µmol/kg, 1 h, individual animals
  concentration at 1 h: 1970 nM
In vivo [5]; 16 µmol/kg, plasma concentration, SC 16 µmol/kg, 2 h, individual animals
  concentration at 2 h: 548 nM
In vitro; 10 μM
  viability at 72 h, 10 µM: 103%
In vitro; 100 μM
  viability at 72 h, 100 µM: 99%
[6]
  Ki: 8.7 nM
In vivo [7]; percentage CSF to plasma ratio
  Kp: 0.15
In vivo [7]; percentage brain to plasma ratio
  Kp: 0.29
Male Sprague-Dawley rats [8]
  hot plate latency: 17.6 ± 4.0 s
